pIC50: −log10 of the molar value. Calls of active or inactive are those of the source. The rule behind the calls is not given here.
Key:
[1] = system: Mycolicibacterium smegmatis; experiment: Anti-tubercular activity against Mycobacterium smegmatis str. MC2 155; format: functional, organism-based
[2] = system: HT-29; experiment: Cytotoxicity against human HT-29 cells assessed as growth inhibition at 25 uM by MTT assay; format: functional; details: read-out: GI
[3] = system: MDA-MB-231; experiment: Cytotoxicity against human MDA-MB-231 cells assessed as growth inhibition at 25 uM by MTT assay; format: functional; details: read-out: GI
[4] = system: Mycolicibacterium smegmatis; experiment: Anti-tubercular activity against Mycobacterium smegmatis str. MC2 155 relative to untreated control; format: functional
[5] = Cytotoxicity against HEK293 cells assessed as cell growth at 25 uM by MTT assay; format: cell-based; details: human, read-out: Activity
[6] = system: Mycolicibacterium smegmatis; experiment: Anti-tubercular activity against Mycobacterium smegmatis str. MC2 155 at 30 uM; format: functional, organism-based
[7] = system: MDA-MB-231; experiment: Cytotoxicity against human MDA-MB-231 cells assessed as growth inhibition by MTT assay; format: functional, cell-based

Structure (SMILES)	pIC50 [1]	inhibition of growth at 25 µM [2] [%]	inhibition of growth at 25 µM [3] [%]	inhibition (INH) [4]	viability at 25 µM [5] [%]	inhibition [6]	pIC50 [7]
CO[C@H]1/C=C/O[C@@]2(C)Oc3c(C)c(O)c4c(O)c(c(/C=N/N5CCN(C)CC5)c(O)c4c3C2=O)NC(=O)/C(C)=C\C=C\[C@H](C)[C@H](O)[C@@H](C)[C@@H](O)[C@@H](C)[C@H](OC(C)=O)[C@@H]1C [RIFAMPIN]	5.73						
COc1ccc(OC)c(-c2nnc(Cl)s2)c1	4.12	8.81	33.7	>=30%	> 74.5		
COc1ccc(OC)c(-c2nnc(N3CCNCC3)s2)c1	4.06	25.5	41.6	>=30%	> 74.5		
COc1ccc(OC)c(CNc2nnc(-c3cc(OC)ccc3OC)s2)c1	< 4.00	47.2	30.2	>=30%	> 74.5		
COc1ccc(OC)c(-c2nnc(-c3ccc(C)c([N+](=O)[O-])c3)s2)c1		51.9	53.3		> 74.5	inactive	
CCN1CCN(c2nnc(-c3cc(OC)ccc3OC)s2)CC1	< 4.00	9.91	34.6	>=30%	> 74.5		
COc1cccc2c1C(=O)c1c(O)c3c(c(O)c1C2=O)C[C@@](O)(C(=O)CO)C[C@@H]3O[C@H]1C[C@H](N)[C@H](O)[C@H](C)O1 [DOXORUBICIN]							6.00
COc1ccc(OC)c(-c2nnc(NCc3ccc(Cl)cc3)s2)c1	< 4.00	68.7	53.8	>=30%	< 74.5		
COc1ccc(OC)c(-c2nnc(N3CCCCC3)s2)c1		3.67	32.8		> 74.5	inactive	
COc1ccc(OC)c(-c2nnc(NCc3ccccc3)s2)c1	4.12	68.3	63	>=30%	< 74.5		
COc1ccc(OC)c(-c2nnc(N3CCC(Cc4ccccc4)CC3)s2)c1	4.18	51	33.6	>=30%	> 74.5		
COc1ccc(OC)c(-c2nnc(N3CCCC3)s2)c1		18.8	38.1		> 74.5	inactive	
COc1ccc(OC)c(-c2nnc(N)s2)c1	< 4.00	20.6	32	>=30%	> 74.5		
COc1ccc(OC)c(-c2nnc(NCc3ccc(Br)cc3)s2)c1	< 4.00	45.4	51.5	>=30%	< 74.5		
COc1ccc(CN2CCN(c3nnc(-c4cc(OC)ccc4OC)s3)CC2)cc1	4.10	39.8	36.5	>=30%	> 74.5		
COc1ccc(OC)c(-c2nnc(NCc3cccc(C(F)(F)F)c3)s2)c1	4.39	52.6	51.2	>=30%	< 74.5		
COc1ccc(OC)c(-c2nnc(N3CCC(=O)CC3)s2)c1	< 4.00	33.7	32.5	>=30%	> 74.5		
COc1ccc(OC)c(-c2nnc(-n3ccnc3)s2)c1		21	33.5		> 74.5	inactive	
NNC(=O)c1ccncc1 [ISONIAZID]	4.80						
COc1ccc(OC)c(-c2nnc(-n3ccc4cc(OC)ccc43)s2)c1		5.65	24.7		> 74.5	inactive	
COc1ccc(OC)c(-c2nnc(N3CCCC(O)C3)s2)c1 (stereo not drawn)	< 4.00	31.1	39.7	>=30%	> 74.5		
COc1ccc(OC)c(-c2nnc(N3CCOCC3)s2)c1	< 4.00	18.2	31.2	>=30%	> 74.5		

— ChEMBL document CHEMBL3400035, “Synthesis, in vitro anticancer and antimycobacterial evaluation of new 5-(2,5-dimethoxyphenyl)-1,3,4-thiadiazole-2-amino derivatives” (Bioorg Med Chem Lett, 2015)
